Assay results from paper PMC8597634, “4-Iminooxazolidin-2-One as a Bioisostere of Cyanohydrin Suppresses EV71 Proliferation by Targeting 3C^pro” (Microbiology Spectrum, 2021).
Where two headings read alike, the source gives them in different places.

How the values were obtained:
[1] = cited from earlier work
HRV = tested on: HRV; set-up: method as in PMID 20066739, PMID 21536800, PMID 23295352, PMID 23633597; conditions: cited from earlier work
EV71 [2] = conditions: cited from earlier work
EV71 3C^pro [3] = target: T1, EV71 3C^pro (Human enterovirus 71, UniProt Q66478); assay: Inhibitor constant (Ki) enzymatic FRET assay; type: biochemical; conditions: 0.5 μM EV71 3C^pro, 100 μM peptide, 2 h
T1 construct: The EV71 3C^pro plasmid was amplified and linked into a pET-28a vector; 6xHis; made in house; host or cells: Escherichia coli
Description: The inhibitor constants (Kis) were determined by fluorescence resonance energy transfer (FRET) using NMA-IEALFQGPPK(DNP)FR peptide. The assays were performed with 50 mM Tris-HCl–150 mM NaCl (pH 7.0) with 0.5 μM EV71 3C^pro and gradient-diluted FOPMC/FIOMC. Subsequently, 100 μM each peptide was hydrolyzed for 2 h. The fluorescence signals were monitored at a microplate reader (Perkin Elmer, USA).

[4] = tested on: EV71 genotype C Fuyang virus; assay: qRT-PCR of viral genome replication, EV71 Fuyang virus in RD cells; type: cell-based; conditions: Enterovirus A, 24 hpi
Description: (§1) The viral genome replication inhibition in host cells after treatment with FOPMC and FIOMC was monitored by EV71 genotype C Fuyang virus. Briefly, RD cells were cultured at 1.5 × 10^5 per well at 37°C for 24 h and then incubated with gradient-diluted FOPMC, FIOMC, and virus. The intracellular RNAs were extracted using TRIzol (TransGen, China) after 24 hpi. The real-time quantitative PCR (qRT-PCR) assays were performed with a SYBR RT-PCR kit (Bio-Rad, USA) for the EV71 5′ […] region (UTR) and the host GAPDH. The transcript copies of EV71 5′ UTR and GAPDH were calculated using the threshold cycle (ΔΔCT) method ([35]).

EV71-luciferase virus [5] = assay: EC50 with EV71-luciferase virus on RD cells; type: cell-based; conditions: Enterovirus A, 24 h
Description: (§2) One hundred microliters each of RD (3 × 10^5 cells/ml), VeroE6 (3 × 10^5 cells/ml), and HEK-293T cells (2 × 10^5 cells/ml) was cultured overnight. Each 96-well plate of cells was treated with EV71-luciferase virus and diluted FOPMC/FIOMC (diluted from 3 nM to 20 μM) for 24 h. The luciferase signals were tested using the firefly luciferase kit (Promega, USA). All of the EC50s were profiled by Graph Pad Prism 7.0.

EV71-luciferase virus [6] = assay: EC50 with EV71-luciferase virus on HEK-293T cells; type: cell-based; conditions: Enterovirus A, EV71, HEK-293T, 24 h
Description: as §2

EV71-luciferase virus [7] = assay: EC50 with EV71-luciferase virus on VeroE6 cells; type: cell-based; conditions: Enterovirus A, EV71, Vero C1008, 24 h
Description: as §2

RD cells = assay: Cytotoxicity (CellTiter-Glo) on RD cells; type: cell-based, human; conditions: even at 200 μM, 48 h
Description: (§3) Determination of the cytotoxicity of FOPMC and FIOMC was performed on three cell lines using a CellTiter-Glo kit (Promega, USA). Briefly, RD, VeroE6, and HEK-293T cells were treated with gradient dilutions of […] (from 0.78 to 200 μM) for 48 h. CellTiter-Glo reagents were applied to evaluate the cells' viability by a microplate reader.

HEK-293T cells = assay: Cytotoxicity (CellTiter-Glo) on HEK-293T cells; type: cell-based; conditions: even at 200 μM, 48 h
Description: as §3

VeroE6 cells = assay: Cytotoxicity (CellTiter-Glo) on VeroE6 cells; type: cell-based; conditions: even at 200 μM, 48 h
Description: as §3

EV71-A = assay: Antiviral activity by qRT-PCR in RD cells, EV71-A; type: cell-based; conditions: Enterovirus A
Description: as §1
(§4) To evaluate the antiviral effect of FOPMC and FIOMC on various viral strains, we measured the EC50s of these two inhibitors on five virus strains. RD cells were treated with FOPMC/FIOMC (0.003 to 50 μM) and each viral strain for 2 h. The antiviral activity was conducted by qRT-PCR according to the method described above.

EV71-B = assay: Antiviral activity by qRT-PCR in RD cells, EV71-B; type: cell-based; conditions: Enterovirus A
Description: as §1, §4

EV71-C = assay: Antiviral activity by qRT-PCR in RD cells, EV71-C; type: cell-based; conditions: Enterovirus A
Description: as §1, §4

CVA16 = assay: Antiviral activity by qRT-PCR in RD cells, CVA16; type: cell-based, coxsackievirus A16; conditions: Enterovirus A
Description: as §1, §4

CVB3 = assay: Antiviral activity by qRT-PCR in RD cells, CVB3; type: cell-based, coxsackievirus B3; conditions: Enterovirus B
Description: as §1, §4

five viral strains = assay: Antiviral activity on five viral strains (summary in discussion); type: cell-based; conditions: read-out: EC50s depending on the specific virus
Description: as §4

EV71-GFP = assay: Phenotype assay with EV71-GFP reporter virus in RD cells; type: cell-based; conditions: 0.16 to 20 μM, 24 h
Description: RD cells (3 × 10^4 per well) were cultured in 96-well plates overnight. Diluted compounds (0.16 to 20 μM) and EV71-GFP reporter virus were added to RD cells. After 24 hpi, the GFP was monitored using confocal microscopy (Olympus, Japan).

EV71 VP1 = assay: Expression of EV71 VP1 in RD cells; type: cell-based; conditions: GAPDH invariable
EV71-luciferase virus [8] = assay: Time-of-addition assay with EV71-luciferase virus in RD cells; type: cell-based; conditions: −6 to 10 hpi, FOPMC 5 μM, FIOMC 5 μM, GPP3 1 μM
pEV71-replicon RNA = pEV71-replicon RNA assay in RD cells; type: cell-based, EV71; conditions: RD cells transfected with pEV71-replicon RNA, 5 μM
Description: RD cells (3 × 10^4 per well) were treated with FOPMC (5 μM), FIOMC (5 μM), GPP3 (1 μM), NK-1.8k (2 μM), and EV71-luciferase virus, respectively. Another plate of RD cells was treated with the same concentrations of the four inhibitors and transfected with pEV71-replicon RNA. After 24 hpi, the luciferase activity was determined using Bright-Glo luciferase substrate (Promega, USA).

EV71 3C^pro [9] = target: T1, EV71 3C^pro; assay: Hydrolytic activity inhibition of EV71 3C^pro on precursor 3BC (SDS-PAGE); type: biochemical; conditions: 100 μM 3C^pro, molar ratio 1:5, GST-3BC-C147A 50 μM
Description: To ascertain whether FOPMC and FIOMC inactivated EV71 3C^pro to hydrolyze the precursor 3BC, the fusion protein GST-3BC with a catalytic central residue C147A mutation was expressed. A 100 μM concentration of EV71 3C^pro and FOPMC/FIOMC (at a molar ratio of 1:5) was incubated at 30°C for 2 h. GST-3BC (50 μM) protein was added for another 4 h, and the reagents were analyzed using SDS-PAGE.

EV71 [10] = assay: Selection of resistant virus by continuous culture of EV71; type: cell-based; conditions: EV71 cultured for 20 rounds, sequence analyses
[11] = cited from earlier work; remark: listed apart in the source
EV-D68 = tested on: EV-D68; set-up: method as in PMID 25554786; conditions: cited from earlier work

## Cc1cc(C(=O)NC(Cc2ccc(F)cc2)C(=O)NC(CC2CCCNC2=O)C(O)C#N)no1 [(R)-1, reference compound]
[1]
  half-life [t1/2] in human plasma: 11 min

## CCOC(=O)/C=C/[C@H](C[C@@H]1CCNC1=O)NC(=O)[C@@H](CC(=O)[C@@H](NC(=O)c1cc(C)on1)C(C)C)Cc1ccc(F)cc1 [AG7088]
HRV
  EC50: 0.013 µM
EV71 [2]; EV71
  EC50: 1.67 µM

## Cc1cc(C(=O)NC(Cc2ccc(F)cc2)C(=O)NC(CC2CCCNC2=O)C2OC(=O)N(C(C)C)C2=N)no1 (stereo not shown) [FIOMC]
EV71 3C^pro [3]
  Ki: 0.033 ± 0.008 µM
[4]
  EC50: 0.067 ± 0.001 µM
EV71-luciferase virus [5]
  EC50: 0.092 ± 0.003 µM
EV71-luciferase virus [6]
  EC50: 0.093 ± 0.007 µM
EV71-luciferase virus [7]
  EC50: 0.104 ± 0.008 µM
RD cells
  Cytotoxicity: no apparent cytotoxic effect
HEK-293T cells
  Cytotoxicity: no apparent cytotoxic effect
VeroE6 cells
  Cytotoxicity: no apparent cytotoxic effect
EV71-A
  EC50: 0.096 ± 0.001 µM
EV71-B
  EC50: 0.102 ± 0.009 µM
EV71-C
  EC50: 0.075 ± 0.003 µM
CVA16
  EC50: 0.125 ± 0.002 µM
CVB3
  EC50: 0.08 ± 0.004 µM
Five viral strains
  EC50: 0.08 to 0.125 µM
EV71-GFP
  replication of EV71-GFP in phenotype screen: positive results
EV71 VP1
  expression of EV71 VP1: inhibited
EV71-luciferase virus [8]
  inhibitory effect by time of addition: valid inhibitory effects regardless of the time
pEV71-replicon RNA
  effect on replicon: impacted the virus replication stage
EV71 3C^pro [9]
  hydrolysis of 3BC by 3C^pro: distinctly restrained the hydrolysis
EV71 [10]
  resistance mutation after continuous culture: no mutation of EV71 virus
[1]
  half-life [t1/2] in human plasma: exceed 120 min
[11]
  t1/2 in mouse plasma: exceed 120 min

## CCCN1C(=N)C(C(CC2CCCNC2=O)NC(=O)C(Cc2ccc(F)cc2)NC(=O)c2cc(C)on2)OC1=O (stereo not shown) [FOPMC]
EV71 3C^pro [3]
  Ki: 0.083 ± 0.001 µM
[4]
  EC50: 0.123 ± 0.004 µM
EV71-luciferase virus [5]
  EC50: 0.244 ± 0.012 µM
EV71-luciferase virus [6]
  EC50: 0.299 ± 0.028 µM
EV71-luciferase virus [7]
  EC50: 0.202 ± 0.015 µM
RD cells
  Cytotoxicity: no apparent cytotoxic effect
HEK-293T cells
  Cytotoxicity: no apparent cytotoxic effect
VeroE6 cells
  Cytotoxicity: no apparent cytotoxic effect
EV71-A
  EC50: 0.115 ± 0.002 µM
EV71-B
  EC50: 0.135 ± 0.004 µM
EV71-C
  EC50: 0.128 ± 0.009 µM
CVA16
  EC50: 0.217 ± 0.014 µM
CVB3
  EC50: 0.21 ± 0.005 µM
EV71-GFP
  replication of EV71-GFP in phenotype screen: positive results
EV71 VP1
  expression of EV71 VP1: inhibited
EV71-luciferase virus [8]
  inhibitory effect by time of addition: valid inhibitory effects regardless of the time
pEV71-replicon RNA
  effect on replicon: impacted the virus replication stage
EV71 3C^pro [9]
  hydrolysis of 3BC by 3C^pro: distinctly restrained the hydrolysis
EV71 [10]
  resistance mutation after continuous culture: no mutation of EV71 virus
[1]
  half-life [t1/2] in human plasma: exceed 120 min
[11]
  t1/2 in mouse plasma: exceed 120 min

## O=c1c(O)c(-c2ccc(O)c(O)c2)oc2cc(O)ccc12 [Fisetin]
EV71 [2]; anti-EV71 activity
  EC50: 85 µM

## CCON=Cc1ccc(OCCC(C)CCN2CCN(c3ccncc3)C2=O)cc1 (stereo not shown) [GPP3, reference compound]
EV71-luciferase virus [8]
  inhibitory effect by time of addition: dramatically decreased from 4 hpi

## O=c1cc(-c2ccc(O)c(O)c2)oc2cc(O[C@@H]3O[C@H](CO)[C@@H](O)[C@H](O)[C@H]3O)cc(O)c12 [Luteoloside]
EV71 [2]; cytopathy caused by EV71 infection
  EC50: 430 µM

## Cc1cc(CCCOc2c(C)cc(-c3noc(C(F)(F)F)n3)cc2C)on1 [pleconaril]
EV-D68
  EC50: 0.43 µM

## O=c1c(O)c(-c2ccc(O)c(O)c2)oc2cc(O)cc(O)c12 [quercetin]
EV71 [2]; EV71
  EC50: 12.1 µM

## C[C@@H]1O[C@@H](OC[C@H]2O[C@@H](Oc3c(-c4ccc(O)c(O)c4)oc4cc(O)cc(O)c4c3=O)[C@H](O)[C@@H](O)[C@@H]2O)[C@H](O)[C@H](O)[C@H]1O [rutin]
EV71 [2]; anti-EV71 activity
  EC50: 110 µM
